The conditions of the data set: 101.33 kPa, Liquid, transient hot wire.

± gives the expanded uncertainty stated by the source.

As for `CCCCn1cc[n+](C)c1.O=S(=O)([O-])C(F)(F)F` [1-butyl-3-methylimidazolium trifluoromethanesulfonate], the thermal conductivity by setting is: (293 K) 0.147 ± 0.01 W/m/K; (303 K) 0.146 ± 0.01 W/m/K; (313 K) 0.145 ± 0.01 W/m/K; (323 K) 0.144 ± 0.01 W/m/K; (333 K) 0.144 ± 0.01 W/m/K; (343 K) 0.143 ± 0.01 W/m/K. Where the note is “353 K”, the thermal conductivity was determined as 0.142 ± 0.01 W/m/K.
Consider `CCCCCCCCCCn1cc[n+](C)c1.O=S(=O)([N-]S(=O)(=O)C(F)(F)F)C(F)(F)F`, for which the thermal conductivity runs as follows: (293 K) 0.132 ± 0.01 W/m/K; (303 K) 0.131 ± 0.01 W/m/K; (313 K) 0.13 ± 0.01 W/m/K; (323 K) 0.129 ± 0.01 W/m/K; (333 K) 0.128 ± 0.01 W/m/K; (343 K) 0.128 ± 0.01 W/m/K. Also, the thermal conductivity (353 K) was 0.128 ± 0.01 W/m/K.
With `CCCC[N+]1(C)CCCC1.FC(F)(F)C(F)(F)[P-](F)(F)(F)(C(F)(F)C(F)(F)F)C(F)(F)C(F)(F)F`, the thermal conductivity is given as 0.107 ± 0.01 W/m/K (293 K); 0.106 ± 0.01 W/m/K (303 K); 0.106 ± 0.01 W/m/K (313 K); 0.105 ± 0.01 W/m/K (323 K); 0.105 ± 0.01 W/m/K (333 K); 0.105 ± 0.01 W/m/K (343 K). Also, the thermal conductivity (353 K) was 0.105 ± 0.01 W/m/K.
For `CCCCCCCCCCCCCC[P+](CCCCCC)(CCCCCC)CCCCCC.O=S(=O)([N-]S(=O)(=O)C(F)(F)F)C(F)(F)F`, the thermal conductivity by setting is: (293 K) 0.144 ± 0.01 W/m/K; (303 K) 0.143 ± 0.01 W/m/K; (313 K) 0.142 ± 0.01 W/m/K; (323 K) 0.141 ± 0.01 W/m/K; (333 K) 0.141 ± 0.01 W/m/K; (343 K) 0.14 ± 0.01 W/m/K. Besides, the thermal conductivity (353 K) came to 0.139 ± 0.01 W/m/K.
As for `CCCCCCCCCCCCCC[P+](CCCCCC)(CCCCCC)CCCCCC.[Cl-]` [trihexyl(tetradecyl)phosphonium chloride], the thermal conductivity is listed as 0.161 ± 0.01 W/m/K (293 K); 0.16 ± 0.01 W/m/K (303 K); 0.159 ± 0.01 W/m/K (313 K); 0.157 ± 0.01 W/m/K (323 K); 0.157 ± 0.01 W/m/K (333 K); 0.156 ± 0.01 W/m/K (343 K). Besides, the thermal conductivity (353 K) is 0.155 ± 0.01 W/m/K.
`CCCC[N+]1(C)CCCC1.O=S(=O)([N-]S(=O)(=O)C(F)(F)F)C(F)(F)F`: the thermal conductivity runs as follows: (293 K) 0.125 ± 0.01 W/m/K; (303 K) 0.125 ± 0.01 W/m/K; (313 K) 0.124 ± 0.01 W/m/K; (323 K) 0.124 ± 0.01 W/m/K.
For the molecule `CCn1cc[n+](C)c1.O=S(=O)([N-]S(=O)(=O)C(F)(F)F)C(F)(F)F`, the thermal conductivity is, setting by setting: (293 K) 0.13 ± 0.01 W/m/K; (303 K) 0.13 ± 0.01 W/m/K; (313 K) 0.129 ± 0.01 W/m/K; (323 K) 0.129 ± 0.01 W/m/K; (333 K) 0.129 ± 0.01 W/m/K; (343 K) 0.129 ± 0.01 W/m/K. Under “353 K”, the thermal conductivity was found to be 0.128 ± 0.01 W/m/K.
For `CCCC[n+]1ccn(C)c1.O=S(=O)([N-]S(=O)(=O)C(F)(F)F)C(F)(F)F`, the thermal conductivity is, setting by setting: (293 K) 0.128 ± 0.01 W/m/K; (303 K) 0.127 ± 0.01 W/m/K; (313 K) 0.127 ± 0.01 W/m/K; (323 K) 0.126 ± 0.01 W/m/K; (333 K) 0.125 ± 0.01 W/m/K; (343 K) 0.124 ± 0.01 W/m/K. Besides, under “353 K”, the thermal conductivity was 0.124 ± 0.01 W/m/K.
For the molecule `CCCCCCCCn1cc[n+](C)c1.O=S(=O)([N-]S(=O)(=O)C(F)(F)F)C(F)(F)F`, the thermal conductivity was found to be 0.128 ± 0.01 W/m/K (293 K); 0.128 ± 0.01 W/m/K (303 K); 0.128 ± 0.01 W/m/K (313 K); 0.126 ± 0.01 W/m/K (323 K); 0.126 ± 0.01 W/m/K (333 K); 0.125 ± 0.01 W/m/K (343 K). Moreover, for the setting “353 K”, the thermal conductivity was 0.126 ± 0.01 W/m/K.
Regarding `CCCCCC[n+]1ccn(C)c1.O=S(=O)([N-]S(=O)(=O)C(F)(F)F)C(F)(F)F`, the thermal conductivity reads like this: (293 K) 0.127 ± 0.01 W/m/K; (303 K) 0.127 ± 0.01 W/m/K; (313 K) 0.127 ± 0.01 W/m/K; (323 K) 0.126 ± 0.01 W/m/K; (333 K) 0.125 ± 0.01 W/m/K; (343 K) 0.125 ± 0.01 W/m/K. Under “353 K”, the thermal conductivity was found to be 0.125 ± 0.01 W/m/K.
For `CCOS(=O)(=O)[O-].CCn1cc[n+](C)c1` [1-ethyl-3-methylimidazolium ethyl sulfate], the thermal conductivity was found to be 0.182 ± 0.01 W/m/K (293 K); 0.181 ± 0.01 W/m/K (303 K); 0.181 ± 0.01 W/m/K (313 K); 0.179 ± 0.01 W/m/K (323 K); 0.179 ± 0.01 W/m/K (333 K); 0.178 ± 0.01 W/m/K (343 K). Further, the thermal conductivity (353 K) is 0.177 ± 0.01 W/m/K.

Values taken from the NIST ThermoML archive (doi:10.1021/je700176d).
